Reference: patent US11905530B2, “Cell encapsulation device comprising a pancreatic progenitor cell population” (ViaCyte, Inc., priority 2009, dated 2024)

Tests used:
[1] = tested on: mice implanted with iPEC grafts; assay: Glucose stimulated insulin secretion (GSIS): human C-peptide in serum of mice implanted with iPEC grafts; format: in vivo
Description: (§1) To determine whether the change in the composition of PEC and iPEC populations affected in vivo function, PEC and iPEC grafts from most of the experiments described in Table 11 were transplanted into mice substantially as previously described herein and in Applicant's other patent and non-patent publications, including Schulz et al. (2012) and Kroon et al (2008), supra and U.S. Pat. Nos. 7,534,608; 7,695,965; 7,993,920 and 8,278,106, supra. Briefly, PEC and iPEC populations were wholly encapsulated with a […] semi-permeable cell encapsulation device, some of which included micro perforations. The devices were manufactured by Applicant and are described in detail in U.S. Pat. No. 8,278,106, entitled ENCAPSULATION OF PANCREATIC CELLS FROM HUMAN PLURIPOTENT STEM CELLS, filed Nov. 13, 2009, the disclosure of which is incorporated herein by reference in its entirety. Glucose stimulated insulin secretion (GSIS) assays were performed starting from about 56 days post-implant. Blood was collected prior to (fasting) and at combinations of 30 and/or 60 minutes after glucose administration. Graft function was assessed by measuring human C-peptide concentrations in the serum in response to glucose administration.
The amount of human C-peptide released into the serum is indicative of the amount of insulin released. C-peptide is a short 31 amino acid peptide connecting or linking A and B-chains of proinsulin and preproinsulin, which is secreted by functioning beta or insulin secreting cells. As discussed previously by Kroon et al. (2008) supra and others, human C-peptide measurements are appropriate for assessing the release of de novo-generated insulin by the implanted cells. […] Human C-peptide was detected in the serum by at least 8 weeks post-implant. With additional weeks of implant and fasting, glucose-stimulated C-peptide levels increased with the peak levels of C-peptide shifting from 60 minutes to 30 minutes post-glucose administration, which is indicative of a more rapid response to glucose challenge as the insulin cells mature.

[2] = tested on: hES-derived cell aggregates; assay: Cell aggregate size of hES-derived cell aggregates in suspension culture; format: cell-based, human
Protocol: Preliminary studies were performed using Heregulin and FGF. In certain of these studies, Rho-kinase inhibitor, Y-27632, was included.

PEC derived from hESC = assay: Flow cytometry analysis of PEC derived from hESC and treated with heregulin and/or FGF2; format: cell-based, human
Description: Table 9 provides a summary of the flow cytometry analysis of PEC cells treated with Hrg1β and FGF2 at stage 3 and/or 4. The endocrine cells are denoted as CHGA positive (or CHGA+) cells and the non-endocrine cells are denoted as CHGA negative (or CHGA−) cells. The endocrine (CHGA+) and non-endocrine cells (CHGA−) may stain positive for other markers, e.g., positive for PDX1 and/or NKX6.1.

PEC (hESC) = assay: Flow cytometry analysis of PEC from heregulin treated hESC-derived cell cultures (E2354); format: cell-based, human
Description: (§2) Changes to the standard method as set forth in Table 7 include, but are not limited to: optimization of the number of times any iPSC is passaged; modulating levels of BMP signaling; modulating iPSC suspension aggregation parameters during expansion and differentiation (e.g. shear force, rotation speed and the like); optimization of the concentrations, time of use and duration of use of growth factors, such as Wnt, Activin and rho-kinase inhibitors; and treatment with other growth factors at various stages 1 through 4 of the differentiation protocol as candidates for improving cell mass, proliferation, differentiation, survival and the like (e.g. ERBB ligands). These many iterative experiments were tested alone, or in combination, to determine how differentiation methods for iPSC during stages 1-4 could be optimized. […] The baseline conditions were similar to those described in Examples 1, 2 and 5 as well as Table 7 herein, except that heregulin was added at stages 3 and 4. Although 30 ng/mL of Hrg1β was used, concentrations ranging from 10 ng/mL to 50 ng/mL, or even greater than 50 ng/mL are suitable. Also, addition of a rho-kinase inhibitor, Y-27632, was maintained in the differentiation cultures as described in Example 2.
(§3) To determine the effect of the addition of heregulin or heregulin and a rho-kinase inhibitor on stage 3 and 4 cell subpopulations, iPEC populations were analyzed by flow cytometry. Table 11 provides a summary of the flow cytometry analysis of various iPEC populations using the formulations set forth in Table 10, as well as such formulations having been modified by increasing the Activin concentration to 200 ng/mL. […] Table 11 also discloses data regarding in vivo function of the cells produced in each experiment.
Under certain conditions, the ratio of subpopulations of cells in the PEC (hESC, E2354) and iPEC (E2314, E2344, E2347) populations were altered. For example, sometimes, the percentage of endocrine (CHGA+) cells decreased and the percentage of non-endocrine cells (CHGA−/NKX6.1+/PDX1+) increased as compared to the baseline (no heregulin) conditions.

[3] = tested on: mice implanted with PEC grafts (CyT203 hESC); assay: Glucose stimulated insulin secretion (GSIS): human C-peptide in serum of mice implanted with PEC grafts from hESC; format: in vivo; conditions: experiment 2354; PEC produced from hESC; grafts resulting from heregulin treatment
Description: as §1
The amount of human C-peptide released into the serum is indicative of the amount of insulin released. […] Human C-peptide was detected in the serum by at least 8 weeks post-implant. […]

iPSC = assay: Cell mass of iPSC-derived differentiation cultures for implantation; format: cell-based, human; conditions: heregulin at stages 3 and 4 without a rho-kinase inhibitor; implantation impossible
Description: As such, the provision of heregulin alone or a rho-kinase inhibitor alone is not substantially similar to the sum effect of the two combined. That is, alone neither results in robust glucose responsiveness in vivo but combined they produce glucose responsiveness similar to that of hES-derived cells. Accordingly, it appeared that the provision of both heregulin and a rho-kinase inhibitor is synergistic since their combined effect is greater than the sum of the effect of each separately.

[4] = tested on: iPS-derived cell cultures (iPEC); assay: Flow cytometry analysis of iPEC populations from heregulin treated iPS-derived cell cultures; format: cell-based, human; conditions: hIPSC, 30 ng/mL heregulin at stages 3 and 4
Description: as §2, §3

C[C@@H](N)[C@H]1CC[C@H](C(=O)Nc2ccncc2)CC1 [rho-kinase inhibitor, Y-27632, reference compound]
in vivo function of graft ([1]; rho-kinase inhibitor alone (baseline conditions, no heregulin)): poor in vivo function

Fibroblast growth factor 2 [FGF2]
cell aggregate size ([2]; 3 days of 50 ng/mL FGF2 at stage 3 compared to 2 days): increase in cell aggregate size
CHGA− NKX6.1− PDX1− (Triple Negative/ Residual Cells) (PEC derived from hESC; 50 ng/mL of FGF2 for 2 days at stage 3, control 13.1): 9.15%
CHGA+ (Endocrine) (PEC derived from hESC; 50 ng/mL of FGF2 for 2 days at stage 3, control 32.9): 11.9%
CHGA− NKX6.1+ PDX1+ (Non-endocrine) (PEC derived from hESC; 50 ng/mL of FGF2 for 2 days at stage 3, control 54.01): 79%
CHGA− NKX6.1− PDX1− (Triple Negative/ Residual Cells) (PEC derived from hESC; 50 ng/mL of FGF2 for 3 days at stage 3, control 13.1): 22.7%
CHGA+ (Endocrine) (PEC derived from hESC; 50 ng/mL of FGF2 for 3 days at stage 3, control 32.9): 0.33%
CHGA− NKX6.1+ PDX1+ (Non-endocrine) (PEC derived from hESC; 50 ng/mL of FGF2 for 3 days at stage 3, control 54.01): 76.9%

Heregulin-1β
cell aggregate size ([2]; 10 ng/mL for one day at stage 1, compared to suspension culture without Heregulin-1β, preliminary studies): increased the cell aggregate size
aggregate disk size ([2]; Hrg1β increased from 10 ng/mL to 50 ng/mL at stage 3): aggregate disk size increased
CHGA− NKX6.1− PDX1− (Triple Negative/ Residual Cells) (PEC (hESC); Exp. E2354, 30 ng/mL heregulin at stages 3 and 4, baseline 1.75): 1.86%
CHGA− NKX6.1− PDX1+ (PDX1 only) (PEC (hESC); Exp. E2354, 30 ng/mL heregulin at stages 3 and 4, baseline 2.89): 8.10%
CHGA+ (Endocrine) (PEC (hESC); Exp. E2354, 30 ng/mL heregulin at stages 3 and 4, baseline 33.39): 16.18%
CHGA− NKX6.1+ PDX1+ (Non-endocrine) (PEC (hESC); Exp. E2354, 30 ng/mL heregulin at stages 3 and 4, baseline 62.01): 73.00%
serum C-peptide compared to baseline controls [3]: does not show higher levels of serum C-peptide
CHGA− NKX6.1− PDX1− (Triple Negative/ Residual Cells) (PEC derived from hESC; 10 ng/mL Heregulin-1β at stage 3, control without Hrg and FGF2 13.1, listed as Hrg): 8.55%
CHGA− NKX6.1− PDX1− (Triple Negative/ Residual Cells) (PEC derived from hESC; 10 ng/mL Heregulin-1β at stage 3, control without Hrg and FGF2 13.1, listed as Hrg1β): did decrease
CHGA− NKX6.1+ PDX1+ (Non-endocrine) (PEC derived from hESC; 10 ng/mL Heregulin-1β at stage 3, control without Hrg and FGF2 54.01): 61.2%
CHGA+ (Endocrine) (PEC derived from hESC; 10 ng/mL Heregulin-1β at stage 3, share of PEC population, control without Hrg and FGF2 32.9, listed as Hrg): 30.3%
CHGA+ (Endocrine) (PEC derived from hESC; 10 ng/mL Heregulin-1β at stage 3, share of PEC population, control without Hrg and FGF2 32.9, listed as Hrg1β): not significantly affected
CHGA− NKX6.1− PDX1− (Triple Negative/ Residual Cells) (PEC derived from hESC; 50 ng/mL Heregulin-1β at stage 3, control 13.1, listed as Hrg): 6.9%
CHGA− NKX6.1− PDX1− (Triple Negative/ Residual Cells) (PEC derived from hESC; 50 ng/mL Heregulin-1β at stage 3, control 13.1, listed as Hrg1β): did decrease and more so
CHGA+ (Endocrine) (PEC derived from hESC; 50 ng/mL Heregulin-1β at stage 3, control 32.9): 28.9%
CHGA− NKX6.1+ PDX1+ (Non-endocrine) (PEC derived from hESC; 50 ng/mL Heregulin-1β at stage 3, control 54.01): 64.2%
increase of serum human C-peptide compared to grafts prepared without heregulin (baseline) ([1]; experiment 2380, 60 minutes post glucose administration): ~5 fold
serum human C-peptide ([1]; experiment 2380, iPEC grafts resulting from heregulin treatment, 60 minutes post glucose administration, baseline 200 pM): 933 pM
serum human C-peptide post glucose administration compared to baseline controls ([1]; grafts resulting from heregulin treatment, in general (FIGS. 7A-7C)): higher levels of serum human C-peptide
cell mass (iPSC): visibly poor cell mass
CHGA− NKX6.1− PDX1− (Triple Negative/ Residual Cells) ([4]; Exp. E2314, baseline 3.20): 9.88%
CHGA− NKX6.1− PDX1+ (PDX1 only) ([4]; Exp. E2314, baseline 11.32): 16.83%
CHGA+ (Endocrine) ([4]; Exp. E2314, baseline 19.83): 9.00%
CHGA− NKX6.1+ PDX1+ (Non-endocrine) ([4]; Exp. E2314, baseline 65.59): 64.21%
CHGA− NKX6.1− PDX1− (Triple Negative/ Residual Cells) ([4]; Exp. E2344, baseline 1.80): 2.75%
CHGA− NKX6.1− PDX1+ (PDX1 only) ([4]; Exp. E2344, baseline 5.45): 11.23%
CHGA− NKX6.1+ PDX1+ (Non-endocrine) ([4]; Exp. E2344, baseline 36.15): 49.00%
CHGA+ (Endocrine) ([4]; Exp. E2344, baseline 56.51): 36.13%
CHGA− NKX6.1− PDX1− (Triple Negative/ Residual Cells) ([4]; Exp. E2347, baseline 2.11): 1.68%
CHGA− NKX6.1− PDX1+ (PDX1 only) ([4]; Exp. E2347, baseline 10.97): 12.30%
CHGA− NKX6.1+ PDX1+ (Non-endocrine) ([4]; Exp. E2347, baseline 37.16): 68.91%
CHGA+ (Endocrine) ([4]; Exp. E2347, baseline 49.78): 17.27%
CHGA− NKX6.1− PDX1− (Triple Negative/ Residual Cells) ([4]; Exp. E2380, baseline 9.10): 7.03%
CHGA− NKX6.1− PDX1+ (PDX1 only) ([4]; Exp. E2380, baseline 12.08): 17.24%
CHGA− NKX6.1+ PDX1+ (Non-endocrine) ([4]; Exp. E2380, baseline 38.18): 29.72%
CHGA+ (Endocrine) ([4]; Exp. E2380, baseline 41.16): increased rather than decreased
CHGA+ (Endocrine) ([4]; Exp. E2380, baseline 41.16, listed as Hg): 45.91%
